Experiment [1] deals with K48 polyubiquitinated proteins in adult S. mansoni. Kind of experiment: Western blot of K48 polyubiquitinated proteins in lysate of drug-treated worms. The experiment is classed as cell-based, Schistosoma mansoni. Conditions: adult worm lysate after 48 h of treatment. As for the experimental part: (§1) DMSO). All selected compounds were obtained from commercial vendors (Medchemexpress, Selleck Chemicals, Sigma-Aldrich, ApexBio, Tocris, Santa Cruz Biotechnology, and Cayman Chemical Company) (Dataset S4) with […]
the activity of the desired compounds. Roughly 5 adult worm pairs were placed in 3mL Basch medium in a 12-well culture vessel, and incubated at 37° C, 5% CO2 for the length of the experiment. […]
(§2) For drug treatment studies, 10 male adult worms (single or paired with females) were supplemented with either 0.1% DMSO or inhibitor (0.1% DMSO final). For all experiments assessing on-target effects of potential parasite […]
(§3) After 48 hr, male parasites were separated […]
(§4) further processing. Male worm samples were homogenized with a pestle in 50 µL lysis buffer containing 2X […]
(Roche, cOmplete Mini, EDTA-free Tablets) and 10 mM DTT. The lysates were then sonicated on high for 5 min (30 sec on, 30 sec off) using a Bioruptor UCD-200. Lysates were centrifuged for 5 min at 10,000 g to remove […]
debris. Total protein was measured using the Detergent Compatible Bradford Assay (Pierce). 50 µg of protein samples denatured in SDS Sample buffer (95°C for 5 min) were separated on a Bio-Rad 4-20% TGX Stain-Free gel along with Precision Plus Protein Dual Color Standards (Bio-Rad) as a marker. Proteins were then transferred to a nitrocellulose membrane (Bio-Rad). The membrane was blocked in a 1:5 solution of Li-Cor Odyssey Blocking buffer in PBST for 1 hr before being immunoblotted overnight at 4°C with 1:500 K48-linkage Specific […]
(1:10,000) (Developmental Studies Hybridoma Bank, JLA20) diluted in a 1:5 solution of Li-Cor Odyssey Blocking buffer in PBST. The membrane was washed 3x in TBST and then incubated in 1:5 Li-Cor Odyssey […]
in TBST 3x before being imaged on a LiCor Odyssey Infrared Imager. […]

In experiment [2] the test system is adult S. mansoni. On the set-up: method as in PMID 32973031. The settings on record: adult parasites; cited from earlier work.
For a further experiment, the system named is HepG2 cells. Kind of experiment: HepG2 cytotoxicity assay (Cell Titer Glo 2.0). Type of experiment: cell-based, Homo sapiens. Conditions: 72 h. On the technique in general: In ATP-based viability assays light output follows the ATP content of the culture.
Experiment [3] relates to adult S. mansoni. Kind of experiment: Dose-response of compounds on adult worms (attachment to culture substrate, EC50). The experiment is classed as cell-based, Schistosoma mansoni. The method, then:
as §1
(§5) the activity of the desired compounds. Roughly 5 adult worm pairs were placed in 3mL Basch medium in a 12-well culture vessel, and incubated at 37° C, 5% CO2 for the length of the experiment. Compound was administered at D0, D1, and D2, media and drug refreshed every 24 hr. Worms were then allowed to remain in culture until D5, where a final assessment of worm attachment to tissue culture substate was made by light microscopy.
Observations on movement and morphology were also recorded. A negative control (0.1% DMSO) and positive control (PZQ; 10 µM in 0.1% DMSO) were included in each experiment, and each experiment was repeated in triplicate for validation. For compounds that caused complete detachment in replicate experiments, the treatment was expanded to three concentrations (10 µM, 5 µM, and 1 µM) following the same treatment schedule and controls as detailed above.
Each titration experiment was performed in triplicate according to the treatment regimen described above, using DMSO and PZQ as appropriate controls. Morphologies and motility were assessed by light microscopy, and dose-response curves were calculated using the primary readout of parasite attachment to tissue culture substrate in GraphPad Prism.
as §2, §3, §4
(Roche, cOmplete Mini, EDTA-free Tablets) and 10 mM DTT. The lysates were then sonicated on high for 5 min (30 sec on, 30 sec off) using a Bioruptor UCD-200. […]
Compounds were tested from 100 μM – 1 nM. Values were calculated using Prism.

Experiment [4] addresses S. mansoni p97 (Smp_018240) (Schistosoma mansoni, UniProt G4M0P7). Type of experiment: biochemical. The settings on record: for IC50: recombinant full-length enzyme, Kinase-Glo, 100 μM to 1 nM. The method, then: Evaluation of p97’s ATPase activity and compound potency
For manual ATP consumption assays, 1 µM p97 was incubated with 1% DMSO or inhibitor (1% DMSO final) in assay buffer [50 mM Tris (pH 7.5), 20 mM MgCl2, 1 mM EDTA, 0.5 mM tris(2-carboxyethyl)phosphine (TCEP)] for 5 minutes prior to the addition of 20 µM ATP in a 384-well plate for a total reaction volume of 10 µL, and a final concentration of 500nM enzyme and 10 µM ATP. The reaction was allowed to proceed for 50 minutes at room temperature before adding equivalent volume of Kinase-Glo Plus reagent (Promega), and a further incubation of 10 minutes in the dark. Luminescence was read using a BioTek Synergy 2 plate reader […]
1 μM, 500 nM, 100 nM, 50 nM, 10 nM, 5 nM, 1 nM, and 0 nM) in triplicate, maintaining a concentration of 1% […]
were calculated using GraphPad Prism. […]
A general note: In Kinase-Glo more light means more ATP remaining.

Experiment [5] deals with adult S. mansoni. Kind of experiment: Single-concentration (10 μM) treatment of adult worms, attachment and morphology. The experiment is classed as cell-based, Schistosoma mansoni. The settings on record: in vitro culture. The method, then:
as §1, §5
Observations on movement and morphology were also recorded. A negative control (0.1% DMSO) and positive control (PZQ; 10 µM in 0.1% DMSO) were included in each experiment, and each experiment was repeated in triplicate for validation. […]

The target in the next experiment is T1, H. sapiens p97 (P55072) (Homo sapiens, UniProt P55072).
T1 construct: purified recombinant full-length (1-806aa) H; 6xHis (N); made in house; host or cells: E. coli BL21 (DE3)
Kind of experiment: Kinase-Glo ATP consumption assay, recombinant H. sapiens p97. Type of experiment: biochemical. Conditions: recombinant full-length enzyme, Kinase-Glo, 100 μM to 1 nM.

The values below come from article PMC12415213, “A genome-scale drug discovery pipeline uncovers therapeutic targets and a unique p97 allosteric binding site in Schistosoma mansoni” (Proceedings of the National Academy of Sciences of the …, 2025).

The term GI50 denotes the concentration at which growth is held to half of that of the control. Read a high GI50 as less potent growth inhibition. Broadly, the IC50 is the concentration that inhibits the measured activity by half. As a reminder, the EC50 is the concentration that produces a half-maximal response.

Like-named read-outs stand apart in the source and are kept apart here.

Chain of S. mansoni p97 (Smp_018240) (G4M0P7 entry or part of it): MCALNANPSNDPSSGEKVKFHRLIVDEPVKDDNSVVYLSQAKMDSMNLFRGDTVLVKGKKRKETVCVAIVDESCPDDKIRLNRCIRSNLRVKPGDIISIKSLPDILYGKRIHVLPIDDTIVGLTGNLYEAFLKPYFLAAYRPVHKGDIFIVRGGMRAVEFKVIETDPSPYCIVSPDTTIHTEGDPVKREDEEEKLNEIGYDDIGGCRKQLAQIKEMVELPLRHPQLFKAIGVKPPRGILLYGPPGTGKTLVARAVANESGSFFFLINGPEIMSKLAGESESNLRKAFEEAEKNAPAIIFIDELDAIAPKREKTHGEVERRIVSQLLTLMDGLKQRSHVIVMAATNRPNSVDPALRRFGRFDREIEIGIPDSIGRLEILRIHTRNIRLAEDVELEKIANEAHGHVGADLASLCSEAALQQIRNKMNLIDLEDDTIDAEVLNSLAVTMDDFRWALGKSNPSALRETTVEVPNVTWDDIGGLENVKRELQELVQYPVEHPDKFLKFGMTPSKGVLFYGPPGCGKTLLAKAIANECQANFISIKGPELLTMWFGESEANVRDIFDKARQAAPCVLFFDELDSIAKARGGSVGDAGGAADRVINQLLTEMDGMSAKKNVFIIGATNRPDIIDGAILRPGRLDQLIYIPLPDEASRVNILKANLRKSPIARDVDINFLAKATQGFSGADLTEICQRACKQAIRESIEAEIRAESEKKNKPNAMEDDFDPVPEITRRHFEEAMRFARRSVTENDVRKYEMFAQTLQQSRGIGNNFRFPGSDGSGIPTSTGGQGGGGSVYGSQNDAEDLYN
T1 sequence (P55072 whole entry): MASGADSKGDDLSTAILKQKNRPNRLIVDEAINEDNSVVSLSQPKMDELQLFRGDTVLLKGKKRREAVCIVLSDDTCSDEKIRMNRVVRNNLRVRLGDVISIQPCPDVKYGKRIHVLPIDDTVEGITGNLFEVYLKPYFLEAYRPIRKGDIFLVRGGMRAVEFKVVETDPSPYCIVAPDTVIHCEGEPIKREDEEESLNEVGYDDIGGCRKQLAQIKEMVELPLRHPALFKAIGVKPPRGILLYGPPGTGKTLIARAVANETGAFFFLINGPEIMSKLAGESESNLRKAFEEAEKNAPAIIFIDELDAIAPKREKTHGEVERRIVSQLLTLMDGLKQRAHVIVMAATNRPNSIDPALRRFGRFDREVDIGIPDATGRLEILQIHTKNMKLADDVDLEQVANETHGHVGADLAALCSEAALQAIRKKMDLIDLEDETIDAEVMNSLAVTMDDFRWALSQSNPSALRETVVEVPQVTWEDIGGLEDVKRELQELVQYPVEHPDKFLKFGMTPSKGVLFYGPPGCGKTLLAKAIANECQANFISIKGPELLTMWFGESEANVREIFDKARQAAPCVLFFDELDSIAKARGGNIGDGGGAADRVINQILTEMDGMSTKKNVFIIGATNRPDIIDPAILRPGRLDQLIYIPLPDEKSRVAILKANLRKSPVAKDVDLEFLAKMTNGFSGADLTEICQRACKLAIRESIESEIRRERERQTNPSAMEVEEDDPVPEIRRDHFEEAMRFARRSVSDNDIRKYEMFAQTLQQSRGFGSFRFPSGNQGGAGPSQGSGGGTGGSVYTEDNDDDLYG

Take `Cc1cc2c(C(N)=O)cccc2n1-c1nc2c(c(NCc3ccccc3)n1)COCC2` [CB-5083]: the “accumulation of K48 polyubiquitinated proteins by western blot” value (from here on “accumulation”) in experiment [1] is given as “accumulation of proteins targeted for proteasome-mediated degradation”. For the same molecule, the “concentration leading to parasite death in vitro” value in the experiment with adult S. mansoni [2] is listed as “submicromolar concentrations”. In the experiment with HepG2 cells (50% growth inhibition normalized to time = 0), this molecule gave a 50% growth inhibitory concentration (GI50) of 310 nM. For the same molecule, the concentration for half-maximal inhibition (IC50) in the experiment on HepG2 cells (50% growth inhibition relative to control) came to 410 nM. Besides, the concentration for a half-maximal effect (EC50) in the experiment on adult S. mansoni [3] (fraction of worms attached after 72 h drug treatment, refreshed every 24 h, kept until D5, 50 μM - 10 nM, read-out: S. mansoni EC50 (μM) on adult parasites) was found to be 0.36 µM.

Consider `Cc1cc(OCc2nnc(SC3CCCC3)n2-c2cccnc2)ccc1-c1ccc(S(C)(=O)=O)cc1` [NMS-873], for which the “accumulation” value in experiment [1] is on record as “accumulation of proteins targeted for proteasome-mediated degradation”. Also, the “concentration leading to parasite death in vitro” value with adult S. mansoni [2] is “submicromolar concentrations”. In addition, the half-inhibitory concentration (IC50) in experiment [4] turned out to be 230 ± 75 nM.

`CC(C)N1CCN(CCNC2CCN(c3cccc(-c4cc5cc(F)ccc5[nH]4)c3)CC2)CC1` [UPCDC-30245, reference compound]: in experiment [1], the “accumulation” value is listed as “did not see significant increases in K48 abundance”. For the same molecule, the “phenotype of adult worms after treatment” value in the experiment on adult S. mansoni [5] was “effective”. The IC50 at H. sapiens p97 (P55072) is 970 ± 67 nM. In experiment [4], the “selectivity between schistosome and human p97” value is reported as “selective in favor of the human enzyme”; the IC50 was 4100 nM.

With AG-270, the EC50 in the experiment with adult S. mansoni [3] (read-out: EC50 of commercial inhibitors of human orthologs on adult parasites) is 0.18 µM.

Turning to AGI-41998, the EC50 in the experiment with adult S. mansoni [3] (adult worms in vitro, tested 50 μM to 10 nM, readout attachment to culture substrate, read-out: EC50 of commercial inhibitors of human orthologs on adult parasites) amounted to 0.71 µM.
